Results on one molecule are retold here after patent US20250339426A1, “GCN2 MODULATOR FOR TREATING CANCER” (HIBERCELL, INC., priority 2022, published 2025).

The test system of one assay is CTG-2234. As to the kind of experiment: Ex vivo AML PDX cell viability (Cell Titer Glo). Type of assay: cell-based. The settings on record: Homo sapiens, 144 h; PDX model CTG-2234, 6 days; read-out: HC-7366 EC50. On the procedure: (§1) . Cell viability was assayed after treating PDX models with DMSO or HC-7366 for 6 days using a plate-based luminescence assay (Cell Titer Glo). […]
(§2) EC50 values were calculated to the bottom of the curve and are provided below. Viability curves are provided for the models CTG-2229 (FIG. 81), CTG-3680 (FIG. 82), CTG-3667 (FIG. 83), CTG-2456 (FIG. 84), CTG-2457 (FIG. 85), and CTG-2454 (FIG. 86).
Background: In ATP-based viability assays light output follows the ATP content of the culture.

The subject of the next assay is CTG-3673. In words: Ex vivo AML PDX cell viability (Cell Titer Glo). Type of assay: cell-based. To be noted: Homo sapiens, 144 h; PDX model CTG-3673, 6 days; read-out: HC-7366 EC50. On the procedure:
as §1, §2

The subject of another assay is CTG-2232. As to the kind of experiment: Ex vivo AML PDX cell viability (Cell Titer Glo). Type of assay: cell-based. To be noted: Homo sapiens, 144 h; PDX model CTG-2232, 6 days; read-out: HC-7366 EC50. On the procedure:
as §1, §2

For a further assay, the system named is CTG-3439. In words: Ex vivo AML PDX cell viability (Cell Titer Glo). Type of assay: cell-based. To be noted: Homo sapiens, 144 h; PDX model CTG-3439, 6 days; read-out: HC-7366 EC50. On the procedure:
as §1, §2

A further assay concerns CTG-2229. In words: Ex vivo AML PDX cell viability (Cell Titer Glo). The assay is classed as cell-based. The settings on record: Homo sapiens, 144 h; PDX model CTG-2229, 6 days; read-out: HC-7366 EC50. On the procedure: as §1, §2
For the next assay, the system named is CTG-3674. In words: Ex vivo AML PDX cell viability (Cell Titer Glo). The assay is classed as cell-based. The settings on record: Homo sapiens, 144 h; PDX model CTG-3674, 6 days; read-out: HC-7366 EC50. On the procedure:
as §1, §2

A further assay concerns CTG-3438. In words: Ex vivo AML PDX cell viability (Cell Titer Glo). The assay is classed as cell-based. To be noted: Homo sapiens, 144 h; PDX model CTG-3438, 6 days; read-out: HC-7366 EC50. On the procedure:
as §1, §2

Another assay concerns CTG-2227. In words: Ex vivo AML PDX cell viability (Cell Titer Glo). Type of assay: cell-based. The settings on record: Homo sapiens, 144 h; PDX model CTG-2227, 6 days; read-out: HC-7366 EC50. On the procedure:
as §1, §2

A further assay relates to CTG-3680. In words: Ex vivo AML PDX cell viability (Cell Titer Glo). To be noted: Homo sapiens, 144 h; PDX model CTG-3680, 6 days; read-out: HC-7366 EC50. Type of assay: cell-based. On the procedure: as §1, §2
The next assay deals with CTG-2457. In words: Ex vivo AML PDX cell viability (Cell Titer Glo). The settings on record: Homo sapiens, 144 h; PDX model CTG-2457, 6 days; read-out: HC-7366 EC50. The assay is classed as cell-based. On the procedure: as §1, §2
Another assay concerns CTG-2235. In words: Ex vivo AML PDX cell viability (Cell Titer Glo). The assay is classed as cell-based. To be noted: Homo sapiens, 144 h; PDX model CTG-2235, 6 days; read-out: HC-7366 EC50. On the procedure: as §1, §2
In the next assay the test system is CTG-2453. In words: Ex vivo AML PDX cell viability (Cell Titer Glo). The assay is classed as cell-based. To be noted: Homo sapiens, 144 h; PDX model CTG-2453, 6 days; read-out: HC-7366 EC50. On the procedure:
as §1, §2

The next assay deals with CTG-2455. In words: Ex vivo AML PDX cell viability (Cell Titer Glo). Type of assay: cell-based. To be noted: Homo sapiens, 144 h; PDX model CTG-2455, 6 days; read-out: HC-7366 EC50. On the procedure:
as §1, §2

Another assay has as its system CTG-2239. In words: Ex vivo AML PDX cell viability (Cell Titer Glo). The settings on record: Homo sapiens, 144 h; PDX model CTG-2239, 6 days; read-out: HC-7366 EC50. The assay is classed as cell-based. On the procedure: as §1, §2
For the next assay, the system named is CTG-3440. As to the kind of experiment: Ex vivo AML PDX cell viability (Cell Titer Glo). To be noted: Homo sapiens, 144 h; PDX model CTG-3440, 6 days; read-out: HC-7366 EC50. Type of assay: cell-based. On the procedure:
as §1, §2

Another assay has as its system CTG-3441. In words: Ex vivo AML PDX cell viability (Cell Titer Glo). To be noted: Homo sapiens, 144 h; PDX model CTG-3441, 6 days; read-out: HC-7366 EC50. The assay is classed as cell-based. On the procedure: as §1, §2
In a further assay the test system is CTG-2774. As to the kind of experiment: Ex vivo AML PDX cell viability (Cell Titer Glo). To be noted: Homo sapiens, 144 h; PDX model CTG-2774, 6 days; read-out: HC-7366 EC50. Type of assay: cell-based. On the procedure:
as §1, §2

The next assay relates to CTG-2236. In words: Ex vivo AML PDX cell viability (Cell Titer Glo). The assay is classed as cell-based. The settings on record: Homo sapiens, 144 h; PDX model CTG-2236, 6 days; read-out: HC-7366 EC50. On the procedure:
as §1, §2

The next assay relates to CTG-2233. In words: Ex vivo AML PDX cell viability (Cell Titer Glo). Type of assay: cell-based. The settings on record: Homo sapiens, 144 h; PDX model CTG-2233, 6 days; read-out: HC-7366 EC50. On the procedure:
as §1, §2

The next assay has as its system CTG-2775. In words: Ex vivo AML PDX cell viability (Cell Titer Glo). Type of assay: cell-based. The settings on record: Homo sapiens, 144 h; PDX model CTG-2775, 6 days; read-out: HC-7366 EC50. On the procedure: as §1, §2
For another assay, the system named is CTG-2700. In words: Ex vivo AML PDX cell viability (Cell Titer Glo). The assay is classed as cell-based. To be noted: Homo sapiens, 144 h; PDX model CTG-2700, 6 days; read-out: HC-7366 EC50. On the procedure:
as §1, §2

The next assay has as its system CTG-2456. As to the kind of experiment: Ex vivo AML PDX cell viability (Cell Titer Glo). The assay is classed as cell-based. To be noted: Homo sapiens, 144 h; PDX model CTG-2456, 6 days; read-out: HC-7366 EC50. On the procedure:
as §1, §2

The subject of assay [1] is upstream regulators of differentially expressed genes in DLD-1 tumors. In words: RNAseq analysis of DLD-1 tumors. Type of assay: in vivo, mice. On the procedure:
DLD-1 (human colorectal cancer cells): Female 6-8 weeks old BALB/c nude mice were inoculated subcutaneously on the right flank with DLD-1 tumor cells (5×10^6) in 0.1 ml of RPMI1640 medium without serum for tumor development. The treatments were started when the mean tumor size reached approximately 195 mm^3 at Day 7 post inoculation and continued until end of study by twice daily oral gavage dosing of HC-7366 at listed doses (vehicle, 0.3 mg/kg HC-7366, 1 mg/kg HC-7366, 3 mg/kg HC-7366, 10 mg/kg HC-7366, or 30 mg/kg HC-7366, FIG. 10). For the time course study, tumors were harvested at Days 4, 7 and 14. Tumors were then used for IHC and RNAseq experiments (see Example 21).
DLD-1 tumor bearing mice were treated with HC-7366 at 0.3, 1, 3, 10 and 30 mg/kg twice a day for 14 days. Tumors were harvested for RNAseq analysis at Day 4, Day 7 and Day 14 (FIG. 128).

In general, EC50 refers to the concentration needed to bring the measured effect to its halfway point. On to `CNC(=O)c1ncn2cc(-c3c(F)ccc(NS(=O)(=O)c4cc(Cl)cnc4OC)c3F)ncc12` [HC-7366, 6-(3-((5-chloro-2-methoxypyridine)-3-sulfonamido)-2,6-difluorophenyl)-N-methylimidazo[1,5-a]pyrazine-1-carboxamide], for which the EC50 in the assay with CTG-2234 turned out to be 65.5 µM; in the assay on CTG-3673 it was 65.6 µM; in the assay with CTG-2232, 84.3 µM; with CTG-3439 it was 349 µM; with CTG-2229 it was 34 µM; in the assay on CTG-3674, 129 µM. Moreover, the EC50 with CTG-3438 stood at 196 µM; with CTG-2227, 39.9 µM; in the assay with CTG-3680 it was 231 µM; with CTG-2457, 248 µM; with CTG-2235 it was 103 µM; in the assay on CTG-2453 it was 180 µM. The EC50 came to 35.7 µM in the assay on CTG-2455; 1.17 mM with CTG-2239; 55.2 µM in the assay on CTG-3440; 102 µM in the assay with CTG-3441; 96.9 µM in the assay with CTG-2774; 36.5 µM in the assay on CTG-2236. Further, the EC50 in the assay with CTG-2233 was found to be 102 µM; in the assay with CTG-2775, 43.4 µM; in the assay with CTG-2700, 333 µM; with CTG-2456, 31.8 µM. For the same molecule, the “HIF1α, SMAD4 and E2F1 signature” value in assay [1] (0.3-30 mg/kg twice a day) is listed as “reduction”. The “ATF4 (upstream regulator of differentially expressed genes)” value in assay [1] (all doses (0.3-30 mg/kg twice a day)) is “significantly induced”.
